# System: CRMM2 cells injected behind the eye (RO) of zebrafish embryos
# Assay: Zebrafish orthotopic CM tumour model, CRMM2
# Assay type: in vivo, Zebrafish (Danio rerio)
# Conditions: for PI (Fluorescence Intensity) / PI (Tumour Area) / Relative Tumour Burden as Measured by Fluorescence Intensity / Tumour Area: CRMM2, Orthotopic Model; for PI (Fluorescence Intensity) / PI (Tumour Area): 0 vs 114 J.cm^−2
# Protocol: The zebrafish ectopic conjunctival melanoma tumour model has been described previously. In this model, around 200 fluorescent CM cells are injected into the Duct of Cuvier at 2 dpf, and then disseminate through the blood circulation and grow in the head and tail. To establish the orthotopic tumour model, around 100 red, (td)Tomato fluorescent CRMM1 or CRMM2 cells were injected RO at 2 dpf into tg(Fli:GFP/Casper), endothelial reporter transgenic zebrafish with green fluorescent vasculature and examined by fluorescent microscopy at day 1 and 4 after engraftment (Figure 6A). Tumour expansion at the injection site was measured as fluorescence intensity and tumour area.
# For cancer cell injection, two days post-fertilization (dpf), dechorionated zebrafish embryos were anaesthetized with 0.003% tricaine (Sigma) and plated on a 10 cm Petri dish covered with 1.5% of solidified agarose. CRMM1 and CRMM2 cells were suspended in PBS containing 2% polyvinylpyrrolidone (PVP; Sigma-Aldrich) with a concentration of 50,000 cells/µL and loaded into borosilicate glass capillary needles (1 mm O.D. × 0.78 mm I.D.; Harvard Apparatus). In the ectopic model, 200 (td)Tomato fluorescent CM cells were injected into the Duct of Cuvier or at 2 dpf, which led to dissemination through the blood circulation and outgrowth in the head and tail. In orthotopic tumour model, 100 (td)Tomato fluorescent CRMM1 or CRMM2 cells were injected RO in 2 dpf embryos using a Pneumatic Picopump and a manipulator (WPI). After injection, the embryos were incubated in a 34 °C incubator. Images were acquired at 1-, 2- and 4-days post injection (dpi) with a Leica M165 FC stereo fluorescence microscope. Tumor growth was quantified by calculating the total fluorescence intensity and area with the ZF4 pixel counting program (Leiden). Each experiment was performed at least 3 times with a group size of >30 embryos.
# Fluorescent CRMM1 and CRMM2 cells were injected at 2 dpf into the Duct of Cuvier (ectopic model) and behind the eye (orthotopic model) and TLD1433 was delivered by WA, IV and RO administration with or without a light treatment as described in 4.8. For the WA administration, the 4.6 nM TLD1433 solution was added to the tumour cells injected zebrafish at 2.5, 3.5, 4.5, 5.5 dpf and maintained for 12 h. At 3, 4, 5, 6 dpf, the fish water was refreshed, and after 1 h, embryos were exposed to green light for 90 min (21 mW/cm^2, 114 J/cm^2, 520 nm). For the IV and RO administration, 1 nL of 2.3 mM TLD1433 solution was injected via the dorsal vein or the RO site at 3, 4, 5, 6 dpf. After 1 h interval, the embryos were exposed to green light for 90 min (21 mW/cm^2, 114 J/cm^2, 520 nm). After treatment, the embryos images were acquired with a Leica M165 FC stereo fluorescence microscope. Tumor growth was quantified by calculating the total fluorescence intensity and area with the ZF4 pixel counting program (Leiden). Each experiment was performed at least 3 times with a group size of >30 embryos.
# [1] = Intravenous (1 nL of 2.3 mM), Light Dose 0 J.cm^−2, vs control dark group (100%)
# [2] = Intravenous (1 nL of 2.3 mM), Light Dose 114 J.cm^−2, vs control dark group (100%)
# [3] = Water (4.6 nM), Light dose 0 J.cm^−2, vs control dark group (100%)
# [4] = Water (4.6 nM), Light dose 114 J.cm^−2, vs control dark group (100%)
# [5] = CRMM2, orthotopic model, RO 2.3 mM, green light 114 J.cm^−2
smiles,measurement,setting,value
Cc1ccnc(-c2cc(C)ccn2)c1.Cc1ccnc(-c2cc(C)ccn2)c1.[Cl-].[Cl-].[Ru+2].c1csc(-c2ccc(-c3ccc(-c4nc5c6cccnc6c6ncccc6c5[nH]4)s3)s2)c1 [TLD1433],PI (Fluorescence Intensity),Intravenous (1 nL of 2.3 mM),1.0
same,PI (Tumour Area),Intravenous (1 nL of 2.3 mM),1.1
same,Relative Tumour Burden as Measured by Fluorescence Intensity,[1],98%
same,Tumour Area,[1],97%
same,Relative Tumour Burden as Measured by Fluorescence Intensity,[2],95%
same,Tumour Area,[2],93%
same,PI (Tumour Area),Retro orbital (1 nL of 2.3 mM),3.4
same,Tumour Area,"Retro orbital (1 nL of 2.3 mM), Light dose 0 J.cm^−2, vs control dark group (100%)",99%
same,Tumour Area,"Retro orbital (1 nL of 2.3 mM), Light dose 114 J.cm^−2, vs control dark group (100%)",29%
same,PI (Fluorescence Intensity),Retro-orbital (1 nL of 2.3 mM),2.2
same,Relative Tumour Burden as Measured by Fluorescence Intensity,"Retro-orbital (1 nL of 2.3 mM), Light Dose 0 J.cm^−2, vs control dark group (100%)",100%
same,Relative Tumour Burden as Measured by Fluorescence Intensity,"Retro-orbital (1 nL of 2.3 mM), Light Dose 114 J.cm^−2, vs control dark group (100%)",45%
same,PI (Fluorescence Intensity),Water (4.6 nM),0.92
same,PI (Tumour Area),Water (4.6 nM),1.1
same,Relative Tumour Burden as Measured by Fluorescence Intensity,[3],96%
same,Tumour Area,[3],104%
same,Relative Tumour Burden as Measured by Fluorescence Intensity,[4],104%
same,Tumour Area,[4],95%
same,diminished fluorescence intensity,[5],55%
same,diminished tumour area,[5],71%
same,effect on tumour burden (in words),"CRMM2, orthotopic model, WA at the MTD (4.6 nM), light 114 J.cm^−2",did not inhibit tumour burden

# Reference: publication PMC7139549, “TLD1433 Photosensitizer Inhibits Conjunctival Melanoma Cells in Zebrafish Ectopic and Orthotopic Tumour Models” (Cancers, 2020)
